Values after ≈ are worked out from the molar mass of the structure shown.
Tests used:
Assay type in all cases: cell-based
[1] = test system: K. pneumoniae A20345; test: MIC, agar dilution technique (Mueller-Hinton Agar); conditions: Klebsiella pneumoniae, Gn-Ib, ampicillin and cephalothin resistant, read-out: Minimum Inhibitory Concentration
Source text: (§1) Each of these groups of organisms is constituted of five individual strains of microorganism. The Gp-Ia organisms are Gram-positive staphylococci which are sensitive to penicillin. The Gp-Ib organisms are Gram-positive staphylococci which are resistant to penicillin and produce penicillinase. The Gn-Ia organisms are Gram-negative bacteria which are sensitive to ampicillin and cephalothin. The Gn-Ib organisms are Gram-negative bacteria which are resistant to ampicillin and cephalothin.

[2] = test system: K. pneumoniae A20346; test: MIC, agar dilution technique (Mueller-Hinton Agar); conditions: Klebsiella pneumoniae, A20346, read-out: Minimum Inhibitory Concentration
Source text: as §1

[3] = test system: E. coli A9660; test: MIC, agar dilution technique (Mueller-Hinton Agar); conditions: Escherichia coli, A9660, read-out: Minimum Inhibitory Concentration
Source text: as §1

[4] = test system: E coli RGN-823; test: MIC, agar dilution technique (Mueller-Hinton Agar); conditions: Escherichia coli, RGN823, Gn-Ib, ampicillin and cephalothin resistant, read-out: Minimum Inhibitory Concentration
Source text: as §1

[5] = test system: K. pneumoniae D11; test: MIC, agar dilution technique (Mueller-Hinton Agar); conditions: Klebsiella pneumoniae, D11, read-out: Minimum Inhibitory Concentration
Source text: as §1

[6] = test system: E. coli A20341-1; test: MIC, agar dilution technique (Mueller-Hinton Agar); conditions: Escherichia coli, A203411, read-out: Minimum Inhibitory Concentration
Source text: as §1

[7] = test system: S. aureus A9601; test: MIC, agar dilution technique (Mueller-Hinton Agar); conditions: Staphylococcus aureus, A9601, read-out: Minimum Inhibitory Concentration
Source text: as §1

[8] = test system: S. aureus A9602; test: MIC, agar dilution technique (Mueller-Hinton Agar); conditions: Staphylococcus aureus; S. aureus A9602; Gp-Ib, penicillin resistant; read-out: Minimum Inhibitory Concentration
Source text: as §1

[9] = test system: E. coli Juhl; test: MIC, agar dilution technique (Mueller-Hinton Agar); conditions: Escherichia coli, read-out: Minimum Inhibitory Concentration
Source text: as §1

[10] = test system: E. coli A15148; test: MIC, agar dilution technique (Mueller-Hinton Agar); conditions: Escherichia coli; E. coli A15148; Gn-Ib, ampicillin and cephalothin resistant; read-out: Minimum Inhibitory Concentration
Source text: as §1

[11] = test system: P. mirabilis A9900; test: MIC, agar dilution technique (Mueller-Hinton Agar); conditions: Proteus mirabilis, A9900, read-out: Minimum Inhibitory Concentration
Source text: as §1

[12] = test system: S. aureus Russell; test: MIC, agar dilution technique (Mueller-Hinton Agar); conditions: Staphylococcus aureus; S. aureus Russell; Gp-Ib, penicillin resistant; read-out: Minimum Inhibitory Concentration
Source text: as §1

[13] = test system: S. aureus A9497; test: MIC, agar dilution technique (Mueller-Hinton Agar); conditions: Staphylococcus aureus, Gp-Ia, penicillin sensitive, read-out: Minimum Inhibitory Concentration
Source text: as §1

[14] = test system: S. aureus BX-1633-2; test: MIC, agar dilution technique (Mueller-Hinton Agar); conditions: Staphylococcus aureus, BX16332, read-out: Minimum Inhibitory Concentration
Source text: as §1

[15] = test system: S. aureus Terajima; test: MIC, agar dilution technique (Mueller-Hinton Agar); conditions: Staphylococcus aureus, Gp-Ia, penicillin sensitive, read-out: Minimum Inhibitory Concentration
Source text: as §1

[16] = test system: S. aureus Smith; test: MIC, agar dilution technique (Mueller-Hinton Agar); conditions: Staphylococcus aureus, Gp-Ia, penicillin sensitive, read-out: Minimum Inhibitory Concentration
Source text: as §1

[17] = test system: P. mirabilis A9554; test: MIC, agar dilution technique (Mueller-Hinton Agar); conditions: Proteus mirabilis, A9554, read-out: Minimum Inhibitory Concentration
Source text: as §1

[18] = test system: S. aureus No. 193; test: MIC, agar dilution technique (Mueller-Hinton Agar); conditions: Staphylococcus aureus, Gp-Ib, penicillin resistant, read-out: Minimum Inhibitory Concentration
Source text: as §1

[19] = test system: S. aureus A9534; test: MIC, agar dilution technique (Mueller-Hinton Agar); conditions: Staphylococcus aureus, Gp-Ia, penicillin sensitive, read-out: Minimum Inhibitory Concentration
Source text: as §1

[20] = test system: S. aureus A15092; test: MIC, agar dilution technique (Mueller-Hinton Agar); conditions: Staphylococcus aureus, Gp-Ib, penicillin resistant, read-out: Minimum Inhibitory Concentration
Source text: as §1

[21] = test system: S. pyogenes A20065; test: In vitro activity against fastidious bacteria; conditions: Streptococcus pyogenes, A20065
Source text: (§2) Table 5 contains comparative data for in vitro antibacterial activity against fastidious bacteria.

[22] = test system: H. influenzae A9729; test: In vitro activity against fastidious bacteria; conditions: Haemophilus influenzae; H. influenzae A9729; ampicillin-sensitive (ABPC-S); read-out: MIC
Source text: as §2

[23] = test system: H. influenzae A22481; test: In vitro activity against fastidious bacteria; conditions: Haemophilus influenzae, ampicillin-resistant (ABPC-R)
Source text: as §2

[24] = test system: S. pyogenes A15040; test: In vitro activity against fastidious bacteria; conditions: Streptococcus pyogenes, A15040
Source text: as §2

[25] = test system: H. influenzae A22482; test: In vitro activity against fastidious bacteria; conditions: Haemophilus influenzae; H. influenzae A22482; ampicillin-sensitive (ABPC-S); read-out: MIC
Source text: as §2

[26] = test system: S. pyogenes A9604; test: In vitro activity against fastidious bacteria; conditions: Streptococcus pyogenes, A9604
Source text: as §2

[27] = test system: S. pneumoniae Type I; test: In vitro activity against fastidious bacteria; conditions: Streptococcus pneumoniae
Source text: as §2

[28] = test system: S. pyogenes A20201; test: In vitro activity against fastidious bacteria; conditions: Streptococcus pyogenes, A20201
Source text: as §2

[29] = test system: H. influenzae A22483; test: In vitro activity against fastidious bacteria; conditions: Haemophilus influenzae; H. influenzae A22483; ampicillin-sensitive (ABPC-S); read-out: MIC
Source text: as §2

[30] = test system: H. influenzae A22491; test: In vitro activity against fastidious bacteria; conditions: Haemophilus influenzae, ampicillin-resistant (ABPC-R)
Source text: as §2

[31] = test system: S. pyogenes Dick; test: In vitro activity against fastidious bacteria; conditions: Streptococcus pyogenes
Source text: as §2

[32] = test system: H. influenzae A9833; test: In vitro activity against fastidious bacteria; conditions: Haemophilus influenzae; H. influenzae A9833; ampicillin-sensitive (ABPC-S); read-out: MIC
Source text: as §2

[33] = test system: N. meningitidis A20048; test: In vitro activity against fastidious bacteria; conditions: Neisseria meningitidis, A20048
Source text: as §2

[34] = test system: H. influenzae A22157; test: In vitro activity against fastidious bacteria; conditions: Haemophilus influenzae, ampicillin-resistant (ABPC-R)
Source text: as §2

[35] = test system: S. pneumoniae A20759; test: In vitro activity against fastidious bacteria; conditions: Streptococcus pneumoniae, A20759
Source text: as §2

[36] = test system: S. pyogenes s-23; test: In vitro activity against fastidious bacteria; conditions: Streptococcus pyogenes, S23
Source text: as §2

[37] = test system: N. meningitidis A21495; test: In vitro activity against fastidious bacteria; conditions: Neisseria meningitidis, A21495
Source text: as §2

[38] = test system: N. meningitidis A21487; test: In vitro activity against fastidious bacteria; conditions: Neisseria meningitidis, A21487
Source text: as §2

[39] = test system: S. pneumoniae Type III; test: In vitro activity against fastidious bacteria; conditions: Streptococcus pneumoniae
Source text: as §2

[40] = test system: N. meningitidis A20049; test: In vitro activity against fastidious bacteria; conditions: Neisseria meningitidis, A20049
Source text: as §2

[41] = test system: S. pneumoniae A15069; test: In vitro activity against fastidious bacteria; conditions: Streptococcus pneumoniae, A15069
Source text: as §2

[42] = test system: N. meningitidis A21497; test: In vitro activity against fastidious bacteria; conditions: Neisseria meningitidis, A21497
Source text: as §2

Work on `CC1=C(C(=O)O)N2C(=O)[C@@H](NC(=O)[C@H](N)c3ccccc3)[C@H]2SC1` [cephalexin] yielded an MIC [1] of 6.3 µg/mL (≈ 18.1 µM), an MIC [2] of 6.3 µg/mL (≈ 18.1 µM) and an MIC [3] of 6.3 µg/mL (≈ 18.1 µM). For the same compound, the MIC [4] was 12.5 µg/mL (≈ 36 µM), the MIC [5] was 6.3 µg/mL (≈ 18.1 µM) and the MIC [6] was 6.3 µg/mL (≈ 18.1 µM). The MIC [7] was 1.6 µg/mL (≈ 4.61 µM), the MIC [8] was 3.1 µg/mL (≈ 8.92 µM) and the MIC [9] was 6.3 µg/mL (≈ 18.1 µM). For the same compound, the MIC [10] was 100 µg/mL (≈ 288 µM), the MIC [11] was 12.5 µg/mL (≈ 36 µM) and the MIC [12] was 3.1 µg/mL (≈ 8.92 µM). For the same compound, the MIC [13] was 1.6 µg/mL (≈ 4.61 µM), the MIC [14] was 6.3 µg/mL (≈ 18.1 µM) and the MIC [15] was 1.6 µg/mL (≈ 4.61 µM). For the same compound, the MIC [16] was 1.6 µg/mL (≈ 4.61 µM), the MIC [17] was 12.5 µg/mL (≈ 36 µM) and the MIC [18] was 6.3 µg/mL (≈ 18.1 µM). For the same compound, the MIC [19] was 1.6 µg/mL (≈ 4.61 µM), the MIC [20] was 6.3 µg/mL (≈ 18.1 µM) and the MIC [21] was 0.8 µg/mL (≈ 2.3 µM). The MIC [22] was 3.1 µg/mL (≈ 8.92 µM), the MIC [23] was 3.1 µg/mL (≈ 8.92 µM) and the MIC [24] was 0.8 µg/mL (≈ 2.3 µM). The MIC [25] was 3.1 µg/mL (≈ 8.92 µM), the MIC [26] was 0.8 µg/mL (≈ 2.3 µM) and the MIC [27] was 3.1 µg/mL (≈ 8.92 µM). For the same compound, the MIC [28] was 0.8 µg/mL (≈ 2.3 µM), the MIC [29] was 3.1 µg/mL (≈ 8.92 µM) and the MIC [30] was 3.1 µg/mL (≈ 8.92 µM). The MIC [31] was 0.8 µg/mL (≈ 2.3 µM), the MIC [32] was 3.1 µg/mL (≈ 8.92 µM) and the MIC [33] was 3.1 µg/mL (≈ 8.92 µM). For the same compound, the MIC [34] was 3.1 µg/mL (≈ 8.92 µM), the MIC [35] was 3.1 µg/mL (≈ 8.92 µM) and the MIC [36] was 0.8 µg/mL (≈ 2.3 µM). The MIC [37] was 3.1 µg/mL (≈ 8.92 µM), the MIC [38] was 3.1 µg/mL (≈ 8.92 µM) and the MIC [39] was 3.1 µg/mL (≈ 8.92 µM). For the same compound, the MIC [40] was 3.1 µg/mL (≈ 8.92 µM), the MIC [41] was 3.1 µg/mL (≈ 8.92 µM) and the MIC [42] was 3.1 µg/mL (≈ 8.92 µM).

From patent US4619925A, “3-Propenyl cephalosporin derivatives” (priority 1985, dated 1986)
